The test system of data set [1] is acetic acid writhing model. Put plainly: Mouse acetic acid writhing model. Type of data set: in vivo, ICR mice. As to conditions: for Number of writhing responses / Inhibition rate (%): ICR mice; for Number of writhing responses: 60 min before 0.8% acetic acid i.p., 30 min observation, Mean + SD, n = 10; for Inhibition rate (%): inhibition of writhing responses vs control group.

A further data set relates to incision pain model. Put plainly: Incision pain model in SD rats, Von Frey test. The format is in vivo. As for the experimental part:
Experimental Example 7: Pharmacodynamic effect study of compounds in incision pain model in SD rats
Experimental animals: SD rats, male, 180-220 g.
(§1) Compound preparation: 5% (final preparation volume) of DMSO was added to dissolve the test compound, and then 10% (final preparation volume) of Cremophor EL and 85% Saline were sequentially added.
A plantar incision pain model was established in rats via surgery before the administration and test. Rats were placed in an anesthesia induction chamber and given 3%-4% isoflurane for anesthesia induction. After the anesthesia induction, a breathing mask was applied, and the isoflurane concentration was adjusted to 1%-2% to prevent the rats from suffering pain during the surgery. Each rat was placed in a supine position, and the surgical site was disinfected with alcohol and iodophor. Under sterile conditions, a 0.5 cm longitudinal incision was made on the left hind paw surface, 0.2 cm away from the heel, extending toward the toes. The skin and fascia were incised; the plantar muscle was separated, slightly lifted, and longitudinally incised. The skin was then sutured with 5-0 sutures and disinfected.
2. Administration and test
The Von Frey test was performed once before the surgery. On the second day after animal modeling, the test was repeated, and animals meeting the baseline requirements were selected for enrollment. The animals were randomly divided into 6 groups based on the 50% PWT values, with 10 animals per group. Administration was performed under a double-blind test protocol. The 50% PWT of the animals was measured separately before administration (baseline) and at 0.5 h, 2 h, 4 h, 6 h, or 8 h after administration, and a single dose was administered. The model control group was given normal saline, while the compound groups were given the compounds according to the administration doses in the table below.

The nature of data set [2]: Tissue distribution study (dorsal root ganglia) in SD rats. Type of data set: in vivo. As to conditions: male, rat, oral administration 10 mg/kg. The protocol: Experimental Example 5: Tissue distribution study of compounds in SD rats
Experimental animals: SD rats, male, 6-8 weeks old.
as §1
Experimental design: The test compounds were administered to SD rats as a single dose via oral administration (10 mg/kg; n = 3, 3 time points). Blood samples were collected at 0.5 h, 2 h, and 6 h after oral administration, followed by sacrifice of the animals. Dorsal root ganglia were collected, rinsed with ice-cold normal saline to remove residual blood, blotted dry with absorbent paper, and stored at -70 °C for analysis.
Sample test: The concentrations of the designated compound drugs in plasma and tissues were determined by the LC-MS/MS method.

For the next data set, the target named is T1, Nav1.8 channels (Homo sapiens, UniProt Q9Y5Y9).
T1 construct: expressed in transfected cells
T1 sequence (Q9Y5Y9 whole entry): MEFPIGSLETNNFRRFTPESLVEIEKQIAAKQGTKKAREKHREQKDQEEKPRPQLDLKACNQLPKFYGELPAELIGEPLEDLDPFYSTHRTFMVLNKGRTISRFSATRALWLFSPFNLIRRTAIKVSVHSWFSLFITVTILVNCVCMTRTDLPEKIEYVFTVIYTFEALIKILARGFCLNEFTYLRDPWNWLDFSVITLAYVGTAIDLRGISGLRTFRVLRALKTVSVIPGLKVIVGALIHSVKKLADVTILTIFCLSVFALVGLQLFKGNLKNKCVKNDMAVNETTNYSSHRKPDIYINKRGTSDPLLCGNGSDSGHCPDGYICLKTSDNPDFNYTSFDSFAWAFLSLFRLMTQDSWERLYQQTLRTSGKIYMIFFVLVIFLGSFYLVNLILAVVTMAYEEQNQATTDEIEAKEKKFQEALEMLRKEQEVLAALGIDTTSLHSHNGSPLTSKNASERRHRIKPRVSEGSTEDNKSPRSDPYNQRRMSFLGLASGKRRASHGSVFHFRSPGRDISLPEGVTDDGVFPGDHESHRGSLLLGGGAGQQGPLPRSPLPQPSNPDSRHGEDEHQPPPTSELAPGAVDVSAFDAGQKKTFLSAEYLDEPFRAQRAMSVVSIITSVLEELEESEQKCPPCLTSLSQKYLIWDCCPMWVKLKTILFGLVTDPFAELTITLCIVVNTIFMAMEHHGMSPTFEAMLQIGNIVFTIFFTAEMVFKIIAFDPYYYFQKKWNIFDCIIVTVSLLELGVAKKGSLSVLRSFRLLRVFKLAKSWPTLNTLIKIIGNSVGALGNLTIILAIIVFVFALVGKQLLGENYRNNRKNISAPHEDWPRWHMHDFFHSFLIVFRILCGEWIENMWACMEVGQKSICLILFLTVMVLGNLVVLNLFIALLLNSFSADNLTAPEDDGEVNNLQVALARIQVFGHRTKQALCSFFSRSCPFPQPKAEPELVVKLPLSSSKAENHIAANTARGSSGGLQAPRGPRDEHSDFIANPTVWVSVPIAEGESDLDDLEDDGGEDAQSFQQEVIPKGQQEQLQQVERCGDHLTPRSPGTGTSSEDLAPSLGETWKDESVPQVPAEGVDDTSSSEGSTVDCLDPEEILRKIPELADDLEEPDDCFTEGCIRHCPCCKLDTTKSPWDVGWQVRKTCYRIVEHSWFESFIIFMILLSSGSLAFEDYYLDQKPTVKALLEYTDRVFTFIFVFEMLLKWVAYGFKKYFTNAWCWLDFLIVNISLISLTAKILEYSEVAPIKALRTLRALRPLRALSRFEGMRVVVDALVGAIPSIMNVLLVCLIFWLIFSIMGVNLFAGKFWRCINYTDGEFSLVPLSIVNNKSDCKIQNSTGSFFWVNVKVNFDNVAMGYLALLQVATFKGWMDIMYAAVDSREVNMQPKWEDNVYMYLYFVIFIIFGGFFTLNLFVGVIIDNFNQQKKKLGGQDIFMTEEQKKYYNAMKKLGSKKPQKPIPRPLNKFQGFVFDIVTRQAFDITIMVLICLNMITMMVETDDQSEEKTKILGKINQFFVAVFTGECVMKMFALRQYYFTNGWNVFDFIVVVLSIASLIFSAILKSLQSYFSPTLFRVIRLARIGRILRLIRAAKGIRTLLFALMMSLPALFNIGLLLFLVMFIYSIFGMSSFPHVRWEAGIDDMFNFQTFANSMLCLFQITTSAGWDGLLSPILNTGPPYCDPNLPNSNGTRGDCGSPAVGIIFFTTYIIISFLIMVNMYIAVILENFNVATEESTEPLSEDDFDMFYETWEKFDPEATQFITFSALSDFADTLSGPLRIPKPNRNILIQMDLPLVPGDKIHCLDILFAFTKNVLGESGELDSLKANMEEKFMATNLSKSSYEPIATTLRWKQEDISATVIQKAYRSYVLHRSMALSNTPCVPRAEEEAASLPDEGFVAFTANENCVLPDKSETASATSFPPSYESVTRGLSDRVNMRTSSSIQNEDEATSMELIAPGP
Put plainly: Manual patch-clamp, current of stably overexpressed Nav1.8 channels (resting state voltage program). Type of data set: cell-based. In a few lines:
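Whole-cell manual patch clamp on cells stably overexpressing Nav1.8, held at -120 mV and stepped to 0 mV for 50 ms every 20 s (resting-state protocol). Compounds were perfused in ascending concentrations, each for 5 min or until stable; block of peak current was calculated at steady state.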

Where [3] appears, read: mouse acetic acid writhing model.

From patent EP4813993A1, “COMPOUND, PREPARATION METHOD THEREFOR, AND USE THEREOF” (Sichuan Kelun Pharmaceutical Research Institute Co., Ltd., priority 2023, dated 2025) come the findings set out here.

Molecules are shown by their SMILES.

Regarding `COc1c(C2CC(C)(C(F)(F)F)SC2C(=O)Nc2ccnc(C(N)=O)c2)ccc(F)c1F` (single isomer, unassigned) [Compound 139-A, 4-(3-(3,4-difluoro-2-methoxyphenyl)-5-methyl-5-(trifluoromethyl)tetrahydrothiophene-2-carboxamido)picolinamide], the “Number of writhing responses” value was found to be 27±18 in data set [1] (Dose 50 mg/kg) and 18±12 in data set [1] (Dose 125 mg/kg). Besides, the “Inhibition rate (%)” value amounted to 45.36% in data set [1] (Dose 50 mg/kg); 62.89% in data set [1] (Dose 125 mg/kg); 95.31% at Nav1.8 channels (concentration of 10 nM, 0.01 µM). In data set [1] (dose of 125 mg/kg), the “effect of inhibiting the number of writhing responses” value was “very significant effect”. Further, the dose-effect relationship result (in data set [1] (setting [3]); in the data set on incision pain model (rat incision pain model)) was “relatively good dose-effect relationship” in each case. For the same compound, the “inhibition of the writhing effect compared with VX-548” value in data set [1] (setting [3]) is “better than VX-548”. For the same compound, the “analgesic activity compared with VX-548” value in the data set on incision pain model (SD rats incision pain model, at the same dose) is reported as “better analgesic activity than VX-548”. The “PWT 50% value (g) Post-surgery, Preadministration” value in the data set with incision pain model (SD rats, 125 mg/kg group, baseline before administration, Mean + SEM, n = 10) turned out to be 3.95 ± 1.12 g. Also, in the data set with incision pain model (SD rats, 125 mg/kg group, baseline before surgery, Mean + SEM, n = 10), the “PWT 50% value (g) Pre-surgery” value was 14.4 ± 1.27 g. Further, the “PWT 50% value (g) Time 0.5 h” value in the data set on incision pain model (SD rats, 125 mg/kg single dose, 0.5 h after administration, Mean + SEM, n = 10) worked out at 7.46 ± 3.86 g. The “PWT 50% value (g) Time 2 h” value with incision pain model (SD rats, 125 mg/kg single dose, 2 h after administration, Mean + SEM, n = 10) is 10.11 ± 3.83 g. Besides, the “PWT 50% value (g) Time 6 h” value in the data set on incision pain model (SD rats, 125 mg/kg single dose, 6 h after administration, Mean + SEM, n = 10) is 6.28 ± 2.28 g. Also, in the data set on incision pain model (SD rats, 125 mg/kg single dose, 8 h after administration, Mean + SEM, n = 10), the “PWT 50% value (g) Time 8 h” value is 6.29 ± 2.6 g. In the data set on incision pain model (SD rats, 125 mg/kg single dose, Mean + SEM, n = 10), the “PWT 50% value (g) AUC0-8h” value worked out at 60.47 ± 11.72 g. Also, in data set [2] (Time 0.5 h), the concentration at 0.5 h was found to be 1070 ng/g. The compound further came in with a concentration at 2 h in data set [2] (Time 2 h) of 973 ng/g. In data set [2] (Time 6 h), this compound yielded a concentration at 6 h of 549 ng/g. The compound also yielded an IC50 against Nav1.8 channels of 0.06 nM.
